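Tested at 5 concentrations; 48 h exposure; 96-well plates; endpoints linearly interpolated, else capped at highest concentration. GI50: concentration for 50% inhibition of growth. TGI denotes the concentration required for complete inhibition of growth.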
How the values were obtained:
Assay in all cases: DTP human tumour cell line panel, 48 h
LXFL 529 NSCLC = tested on: LXFL 529 NSCLC
RXF-631 renal = tested on: RXF-631 renal
XF 498 CNS = tested on: XF 498 CNS
DLD-1 colon = tested on: DLD-1 colon
SNB-78 CNS = tested on: SNB-78 CNS
M19-MEL melanoma = tested on: M19-MEL melanoma
DMS 273 small cell lung = tested on: DMS 273 small cell lung
KM20L2 colon = tested on: KM20L2 colon
DMS 114 small cell lung = tested on: DMS 114 small cell lung
HOP-18 NSCLC = tested on: HOP-18 NSCLC

Which TGI (LXFL 529 NSCLC) does the source give for `COC1=CC(=O)C2[C@H]3Cc4ccccc4[C@H]3C2(C)C1=O` (stereo partly specified) here?
The TGI was > 100 µM.

And the TGI (RXF-631 renal)?
Its TGI is > 100 µM.

And the TGI (XF 498 CNS)?
The TGI was > 100 µM.

And the TGI (DLD-1 colon)?
Its TGI is > 100 µM.

What about the TGI (SNB-78 CNS) of the same molecule?
The TGI was > 100 µM.

What about the TGI (M19-MEL melanoma) of the same molecule?
Its TGI is > 100 µM.

And the TGI (DMS 273 small cell lung)?
The TGI was > 100 µM.

What about the TGI (KM20L2 colon) of the same molecule?
Its TGI is > 100 µM.

For `CC1=NN(c2ccccc2)C(=O)C1C(=O)C(=O)Nc1ccc(C)cc1C` (stereo unspecified), which TGI (LXFL 529 NSCLC) is on record?
Its TGI is > 100 µM.

And the TGI (DMS 114 small cell lung)?
The TGI was > 100 µM.

And the TGI (HOP-18 NSCLC)?
The TGI was > 100 µM.

And the TGI (DLD-1 colon)?
Its TGI is > 100 µM.

And the TGI (SNB-78 CNS)?
The TGI was > 100 µM.

What about the TGI (M19-MEL melanoma) of the same molecule?
The TGI was > 100 µM.

And the TGI (DMS 273 small cell lung)?
The TGI was > 100 µM.

And the TGI (KM20L2 colon)?
The TGI was > 100 µM.

Which TGI (LXFL 529 NSCLC) does the source give for `CCC(/C=C/c1ccccc1)=N\N=C(\C=C\c1ccccc1)CC` here?
Its TGI is > 100 µM.

And the TGI (XF 498 CNS)?
Its TGI is > 100 µM.

And the TGI (DLD-1 colon)?
The TGI was > 100 µM.

And the TGI (SNB-78 CNS)?
Its TGI is > 100 µM.

What about the TGI (M19-MEL melanoma) of the same molecule?
Its TGI is > 100 µM.

And the TGI (DMS 273 small cell lung)?
Its TGI is > 100 µM.

And the TGI (KM20L2 colon)?
Its TGI is > 100 µM.

With `C=CCn1c(=S)sc2c(=O)[nH]cnc21` as the molecule, how does the TGI (LXFL 529 NSCLC) read?
The TGI was > 100 µM.

What about the TGI (DMS 114 small cell lung) of the same molecule?
The TGI was > 100 µM.

And the TGI (XF 498 CNS)?
The TGI was > 100 µM.

And the TGI (DLD-1 colon)?
The TGI was > 100 µM.

What about the TGI (SNB-78 CNS) of the same molecule?
Its TGI is > 100 µM.

And the TGI (M19-MEL melanoma)?
The TGI was > 100 µM.

And the TGI (DMS 273 small cell lung)?
The TGI was > 100 µM.

And the TGI (KM20L2 colon)?
The TGI was > 100 µM.

How did the GI50 (LXFL 529 NSCLC) turn out when `N.N.N.N.O=S(=O)([O-])[O-].[Co+3].[OH3+].[OH3+]` was run?
Its GI50 is > 100 µM.

What about the TGI (LXFL 529 NSCLC) of the same molecule?
The TGI was > 100 µM.

And the TGI (DLD-1 colon)?
The TGI was > 100 µM.

What about the TGI (SNB-78 CNS) of the same molecule?
Its TGI is > 100 µM.

What about the TGI (DMS 273 small cell lung) of the same molecule?
The TGI was > 100 µM.

And the TGI (KM20L2 colon)?
Its TGI is > 100 µM.

With `Cn1c(C2CC(C)(C)c3c2c2ccccc2n3C)cc2ccccc21` (stereo unspecified) as the molecule, how does the TGI (LXFL 529 NSCLC) read?
The TGI was > 304 µM.

What about the TGI (DMS 114 small cell lung) of the same molecule?
The TGI was > 304 µM.

And the TGI (XF 498 CNS)?
Its TGI is > 304 µM.

And the TGI (DLD-1 colon)?
Its TGI is > 304 µM.

What about the TGI (M19-MEL melanoma) of the same molecule?
The TGI was > 304 µM.

What about the TGI (DMS 273 small cell lung) of the same molecule?
The TGI was > 304 µM.

And the TGI (KM20L2 colon)?
Its TGI is > 304 µM.

For `CCCN1CN(C(C(=O)N[C@@H]2C(=O)N3C(C(=O)O)=C(C)CSC23)c2ccccc2)CSC1=S` (stereo partly specified), which TGI (LXFL 529 NSCLC) is on record?
The TGI was > 100 µM.

And the TGI (HOP-18 NSCLC)?
Its TGI is > 100 µM.

And the TGI (DLD-1 colon)?
The TGI was > 100 µM.

What about the TGI (SNB-78 CNS) of the same molecule?
Its TGI is > 100 µM.

What about the TGI (M19-MEL melanoma) of the same molecule?
The TGI was > 100 µM.

What about the TGI (DMS 273 small cell lung) of the same molecule?
The TGI was > 100 µM.

And the TGI (KM20L2 colon)?
Its TGI is > 100 µM.

Which results are given for `COC(=O)/C(Cl)=C1/CC1COCc1ccccc1` (stereo unspecified)?
TGI (LXFL 529 NSCLC): 31.1 µM; TGI (DMS 114 small cell lung): 81.2 µM; TGI (XF 498 CNS): 58.4 µM; TGI (DLD-1 colon): 45.8 µM; TGI (SNB-78 CNS): > 100 µM; TGI (M19-MEL melanoma): 93.2 µM; TGI (DMS 273 small cell lung): 54.9 µM; TGI (KM20L2 colon): > 100 µM

Which results are given for `O=C1CSc2ccncc2N1`?
TGI (LXFL 529 NSCLC): > 100 µM; TGI (DMS 114 small cell lung): > 100 µM; TGI (XF 498 CNS): > 100 µM; TGI (DLD-1 colon): > 100 µM; TGI (M19-MEL melanoma): > 100 µM; TGI (DMS 273 small cell lung): > 100 µM; TGI (KM20L2 colon): > 100 µM

`COC(=O)c1c/c(=N\NC(=O)CC(=O)Nc2ccc(C)cc2)c2ccccc2o1` was tested. Which TGI (LXFL 529 NSCLC) did it give?
Its TGI is > 100 µM.

What about the TGI (DMS 114 small cell lung) of the same molecule?
Its TGI is > 100 µM.

And the TGI (XF 498 CNS)?
Its TGI is > 100 µM.

And the TGI (HOP-18 NSCLC)?
The TGI was > 100 µM.

And the TGI (DLD-1 colon)?
The TGI was > 100 µM.

What about the TGI (SNB-78 CNS) of the same molecule?
The TGI was > 100 µM.

What about the TGI (M19-MEL melanoma) of the same molecule?
The TGI was > 100 µM.

What about the TGI (DMS 273 small cell lung) of the same molecule?
Its TGI is > 100 µM.

What about the TGI (KM20L2 colon) of the same molecule?
Its TGI is > 100 µM.

With `COc1ccc(C2S/C(=C\c3cccc([N+](=O)[O-])c3)C(=O)N2NC(=O)Cc2ccccc2)cc1` (stereo unspecified) as the molecule, how does the TGI (LXFL 529 NSCLC) read?
The TGI was > 100 µM.

What about the TGI (DMS 114 small cell lung) of the same molecule?
The TGI was > 100 µM.

And the TGI (HOP-18 NSCLC)?
Its TGI is > 100 µM.

And the TGI (DLD-1 colon)?
Its TGI is > 100 µM.

What about the TGI (M19-MEL melanoma) of the same molecule?
The TGI was > 100 µM.

What about the TGI (DMS 273 small cell lung) of the same molecule?
Its TGI is > 100 µM.

Reference: PubChem BioAssay (NCI)
